Measured values as given in PMC3527451, “A Pilot Randomized, Placebo Controlled, Double Blind Phase I Trial of the Novel SIRT1 Activator SRT2104 in Elderly Volunteers” (PLoS ONE, 2012).
“Also recorded” adds a separate entry of the source. Like-named read-outs stand apart in the source and are kept apart here.

Key:
[1] = test system: CYP2C9; conditions: human liver microsomes; cited from earlier work
[2] = test system: CYP1A; design: method as in ref 17, 18 (a number printed in a supplementary file, which may have a reference list of its own: not looked up in the article's list); conditions: cultured hepatocytes, at the concentrations tested; cited from earlier work
[3] = test system: CYP2C19; conditions: human liver microsomes; cited from earlier work
[4] = test system: healthy male volunteers; conditions: young healthy volunteers, up to 7 days dosing of 0.03–3.0 g/day; cited from earlier work
[5] = test system: elderly male and female volunteers; assay: MRI of subcutaneous and visceral adipose tissue; assay type: in vivo, human; conditions: active treatment relative to placebo
Description: Magnetic Resonance Imaging (MRI) was also carried out on a clinical Siemens 3T Tim Trio (Siemens Healthcare, Erlangen, Germany). The torso was imaged using the 6-channel spine array and two 4-channel body array coils. The data were acquired using a 3D spoiled gradient echo sequence with partial Fourier acquisitions (VIBE). The imaging volume consisted of contiguous 3D slabs (voxel size of 1.4×1.4×5 mm3) acquired in a single 15 s end-expiration breath-hold (repetition time = 7 ms; echo times TEs = 2.45, 3.67 ms; flip angle = 10°; 450 mm field-of-view; GRAPPA factor 2). […] Fat-only images in the abdomen were manually segmented into intra-abdominal adipose tissue (IAT) and abdominal subcutaneous adipose tissue (SAT). The abdominal area was defined by using anatomical landmarks (top of the femoral heads to the bottom of the right lung). All images were anonymized and blinded to time point, but not to subject in order to facilitate matching anatomical landmarks, and sent to a third party (Vardis Group Inc, London), who derived the adipose tissue volumes using Slice-O-Matic (Tomovision, Montreal, Canada) software. Analysis of compartmental fat distribution was performed for subcutaneous adipose tissue (SAT), visceral adipose tissue (VAT), and the ratio of SAT:VAT, using an ANOVA model with treatment group as a factor.

[6] = test system: elderly male and female volunteers; assay: Serum lipid profile at baseline and after 28 days treatment; assay type: in vivo, human
Description: At every visit (including at screening and follow-up), blood and urine samples were collected for clinical laboratory assessments (general blood biochemistry, full blood count, coagulation parameters and urinalysis). On the same days, physical examination, vital signs (resting pulse rate, respiration rate, temperature, and blood pressure readings), pre- and post-dose 12-lead ECG and a review of adverse events (AE) and any medications received were also performed. Safety evaluations were based on the incidence, severity and type of AEs and clinically significant changes from baseline in physical examination findings, vital signs or clinical laboratory results.

[7] = cited from earlier work
[8] = test system: SIRT2; conditions: SIRT1 activation over SIRT2; ref SRT2104 Investigator's Brochure; cited from earlier work
[9] = test system: rat; design: method as in SRT2104 Investigator's Brochure; conditions: ref SRT2104 Investigator's Brochure, cited from earlier work; for NOAEL: 28 days
[10] = test system: CYP3A4; conditions: human liver microsomes; cited from earlier work
[11] = test system: SIRT1; design: method as in JC Milne et al, 2007; conditions: lowering of the Km for acetylated protein substrate; ref JC Milne et al, 2007; cited from earlier work
[12] = test system: SIRT3; conditions: SIRT1 activation over SIRT3; ref SRT2104 Investigator's Brochure; cited from earlier work
[13] = test system: 39 common receptors; design: method as in SRT2104 Investigator's Brochure; conditions: in vitro; ref SRT2104 Investigator's Brochure; cited from earlier work
[14] = test system: rats and dogs; design: method as in ref 17, 18; SRT2104 Investigator's Brochure; conditions: acute safety pharmacology, doses up to 2.0 g/kg; SRT2104 Investigator's Brochure; cited from earlier work

Cc1nc(-c2cccnc2)sc1C(=O)Nc1ccccc1-c1cn2c(CN3CCOCC3)csc2n1 [SRT2104]
inhibition of CYP2C9 [1]: not an inhibitor; also recorded: does not inhibit
induction of CYP1A [2]: not a significant inducer
inhibition of CYP2C19 [3]: not an inhibitor; also recorded: does not inhibit
tolerability [4]: well tolerated and safe
subcutaneous (SAT) and visceral (VAT) adipose tissue volumes and VAT:SAT ratio [5]: No consistent changes from baseline
serum cholesterol levels, change relative to baseline as compared to placebo ([6]; 0.5 g/day, day 28, p = 0.0071): statistically significant decrease
increase in mean HDL:LDL ratio as compared to placebo ([6]; 2.0 g/day, day 28, p = 0.0141): statistically significant
serum cholesterol levels, change relative to baseline as compared to placebo ([6]; 2.0 g/day, day 28, p = 0.0181): statistically significant decrease
total cholesterol, LDL levels and HDL:LDL ratio after drug washout ([6]; 7 days of drug washout): reverted to baseline values
high-density lipoprotein, HDL ([6]; day 28): not changes
low-density lipoprotein (LDL) cholesterol ([6]; day 28): decreases
mean HDL:LDL ratios ([6]; day 28, 0.5 and 2.0 g/day): dose-dependent increase
mean serum triglyceride concentration ([6]; day 28 relative to baseline, as compared to placebo, not dose-dependent, only a trend for 2.0 g/day): decrease
Serum cholesterol, LDL levels and triglycerides ([6]; with treatment, 0.5 or 2.0 g for 28 days): decreased
dose proportionality of AUC(0-t) and Cmax ([7]; dose range 0.03 to 1.0 g/day): approximate dose proportionality
dose proportionality of AUC(0-t) and Cmax ([7]; doses greater than 1.0 g/day up to 3.0 g/day): less than dose proportional increase between 1.0–3.0 g/day
effect of dose on elimination half-life (t1/2) ([7]; doses up to 3.0 g/day): not affected by dose; also recorded: similar
terminal elimination half-life (t½) ([7]; healthy male volunteers, 0.03 – 3.0 g/day, liquid suspension, ref SRT-2104-001 (19)): 8 to 24 h
fold selectivity as compared to SIRT2 [8]: > 100
vacuolation of pancreatic acinar cells, animals affected ([9]; female rat, Day 29, not seen after 4 weeks recovery): 3/10
NOAEL ([9]; female rats): 1000 mg/kg
NOAEL ([9]; male rats, highest dose tested): 2000 mg/kg
tolerability ([9]; rat, up to 2.0 g/kg for 28 days): well tolerated at all doses
inhibition of CYP3A4 [10]: not an inhibitor; also recorded: does not inhibit
increase in SIRT1 activity [11]: approximately two-fold increase in activity
fold selectivity as compared to SIRT3 [12]: > 100
inhibitory activity against 39 common receptors [13]: no significant inhibitory activity
central nervous system, cardiovascular system and pulmonary effects [14]: no central nervous system (CNS), cardiovascular system (CVS) or pulmonary effects; also recorded: not associated with adverse central nervous system, cardiovascular system, or pulmonary effects
